Source: patent US8501755B2, “Tetrahydropyridothienopyrimidine compounds and methods of use thereof” (Bayer Intellectual Property GmbH, priority 2006, dated 2013)

Columns and labels:
Assay type in all cases: cell-based
[1] = system: A431 cells; assay: In vitro tumor cell proliferation assay (Cell Titer-Glo) in A431 cells; details: Homo sapiens, A-431, 72 h, A431 human epidermoid carcinoma overexpressing HER1; 72 hours exposure; read-out: IC50, activities in A431 cell lines
In short: (§1)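 Viability after 72 h drug exposure at 37 °C was read as CellTiter-Glo ATP luminescence, giving IC50. Cells (2.5×10^3/well, RPMI + 10% FBS) were compound-treated one day post-seeding, 0.1% DMSO final: A431 overexpresses HER1, N87 overexpresses HER2 and HER1.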

[2] = system: N87; assay: In vitro tumor cell proliferation assay (Cell Titer-Glo) in N87 cells; details: N87 human gastric carcinoma overexpressing HER2 and HER1; 72 hours exposure; read-out: IC50, activities in N87 cell lines
In short: as §1

[3] = system: H1975 cells; assay: In vitro tumor cell proliferation assay (Cell Titer-Glo) in H1975 cells; details: NCI-H1975; H1975 human NSCLC expressing mutant HER1 (L858R,T790M); 72 hours exposure; read-out: IC50, activities in H 1975 cell lines
In short: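 After 72 h compound exposure at 37° C (top 10 uM down to 64 pM, 0.1% DMSO), viability of EGFR L858R/T790M-mutant H1975 cells was read as ATP luminescence.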

IC50 [1] [nM] | IC50 [2] [nM] | IC50 [3] [nM] | Structure (SMILES)
200 to 1000 | < 200 | 200 to 1000 | O=C(/C=C/CN1CCCCC1)N1CCc2c(sc3ncnc(Nc4ccc5c(cnn5Cc5ccccn5)c4)c23)C1 [Example 112, 7-[(2E)-4-piperidin-1-ylbut-2-enoy]-N-[1-(pyridin-2-ylmethyl)-1H-indazol-5-yl]-5,6,7,8-tetrahydropyrido [4′,3′:4,5]thieno[2,3-d]pyrimidin-4-amine]
200 to 1000 | < 200 | 200 to 1000 | O=C(/C=C/CN1CCOCC1)N1CCc2c(sc3ncnc(Nc4ccc5c(cnn5Cc5ccccn5)c4)c23)C1 [Example 113, 7-[(2E)-4-morpholin-4-ylbut-2-enoyl]-N-[1-(pyridin-2-ylmethyl)-1H-indazol-5-yl]-5,6,7,8-tetrahydropyrido [4′,3′:4,5]thieno[2,3-d]pyrimidin-4-amine]
< 200 | < 200 | < 200 | O=C(/C=C/CN1CCCCC1)N1CCc2c(sc3ncnc(Nc4ccc5c(ccn5Cc5ccccn5)c4)c23)C1 [Example 114, 7-[(2E)-4-piperidin-1-ylbut-2-enoyl]-N-[1-(pyridin-2-ylmethyl)-1H-indol-5-yl]-5,6,7,8-tetrahydropyrido [4′,3′:4,5]thieno[2,3-d]pyrimidin-4-amine]
< 200 | < 200 | < 200 | CCN(C)C/C=C/C(=O)N1CCc2c(sc3ncnc(Nc4ccc5c(cnn5Cc5cccc(F)c5)c4)c23)C1 [Example 115, 7-{(2E)-4-[ethyl(methyl)amino]but-2-enoyl}-N-[1-(3-fluorobenzyl)-1H-indazol-5-yl]-5,6,7,8-tetrahydropyrido [4′,3′:4,5]thieno[2,3-d]pyrimidin-4-amine]
200 to 1000 | < 200 | 200 to 1000 | CC(C)N(C)C/C=C/C(=O)N1CCc2c(sc3ncnc(Nc4ccc5c(cnn5Cc5ccccn5)c4)c23)C1 [Example 116, 7-{(2E)-4-[isopropyl(methyl)amino]but-2-enoyl}-N-[1-(pyridin-2-ylmethyl)-1H-indazol-5-yl]-5,6,7,8-tetrahydropyrido [4′,3′:4,5] thieno[2,3-d]pyrimidin-4-amine]
200 to 1000 | < 200 | < 200 | CC(C)N(C)C/C=C/C(=O)N1CCc2c(sc3ncnc(Nc4ccc5c(ccn5Cc5ccccn5)c4)c23)C1 [Example 117, 7-{(2E)-4-[isopropyl(methyl)amino]but-2-enoyl}-N-[1-(pyridin-2-ylmethyl)-1H-indol-5-yl]-5,6,7,8-tetrahydropyrido [4′,3′:4,5]thieno[2,3-d]pyrimidin-4-amine]
< 200 | < 200 | < 200 | CC(C)N(C)C/C=C/C(=O)N1CCc2c(sc3ncnc(Nc4ccc5c(ccn5Cc5ccccc5)c4)c23)C1 [Example 118, N-(1-benzyl-1H-indol-5-yl)-7-{(2E)-4-[isopropyl(methyl)amino]but-2-enoyl}-5,6,7,8-tetrahydropyrido [4′,3′:4,5]thieno[2,3-d]pyrimidin-4-amine]
200 to 1000 | < 200 | 200 to 1000 | CCN(CC)C/C=C/C(=O)N1CCc2c(sc3ncnc(Nc4ccc5c(ccn5Cc5ccccn5)c4)c23)C1 [Example 121, 7-[(2E)-4-(diethylamino)but-2-enoyl]-N-[1-(pyridin-2-ylmethyl)-1H-indol-5-yl]-5,6,7,8-tetrahydropyrido [4′,3′:4,5]thieno[2,3-d]pyrimidin-4-amine]
200 to 1000 | < 200 | < 200 | CC(C)N(C)C/C=C/C(=O)N1CCc2c(sc3ncnc(Nc4ccc5c(ccn5Cc5cccc(F)c5)c4)c23)C1 [Example 122, N-[1-(3-fluorobenzyl)-1H-indol-5-yl]-7-{(2E)-4-[isopropyl(methyl)amino]but-2-enoyl}-5,6,7,8-tetrahydropyrido [4′,3′:4,5]thieno[2,3-d]pyrimidin-4-amine]
< 200 | < 200 | < 200 | CC(C)N(C)C/C=C/C(=O)N1CCc2c(sc3ncnc(Nc4ccc5c(cnn5Cc5cccc(F)c5)c4)c23)C1 [Example 123, N-[1-(3-fluorobenzyl)-1H-indazol-5-yl]-7-{(2E)-4-[isopropyl(methyl)amino]but-2-enoyl}-5,6,7,8-tetrahydropyrido [4′,3′:4,5]thieno[2,3-d]pyrimidin-4-amine]
< 200 | < 200 | < 200 | CN(C/C=C/C(=O)N1CCc2c(sc3ncnc(Nc4ccc5c(cnn5Cc5cccc(F)c5)c4)c23)C1)C(C)(C)C [Example 124, 7-{(2E)-4-[tert-butyl(methyl)amino]but-2-enoyl}-N-[1-(3-fluorobenzyl)-1H-indazol-5-yl]-5,6,7,8-tetrahydropyrido [4′,3′:4,5]thieno[2,3-d]pyrimidin-4-amine]
200 to 1000 | < 200 | 200 to 1000 | CN(C/C=C/C(=O)N1CCc2c(sc3ncnc(Nc4ccc5c(ccn5Cc5cccc(F)c5)c4)c23)C1)C(C)(C)C [Example 125, 7-{(2E)-4-[tert-butyl(methyl)amino]but-2-enoyl}-N-[1-(3-fluorobenzyl)-1H-indol-5-yl]-5,6,7,8-tetrahydropyrido [4′,3′:4,5]thieno[2,3-d]pyrimidin-4-amine]
< 200 | < 200 | < 200 | CN(C/C=C/C(=O)N1CCc2c(sc3ncnc(Nc4ccc5c(cnn5Cc5ccccc5)c4)c23)C1)C(C)(C)C [Example 126, N-(1-benzyl-1H-indazol-5-yl)-7-{(2E)-4-[tert-butyl(methyl)amino]but-2-enoyl}-5,6,7,8-tetrahydropyrido [4′,3′:4,5]thieno[2,3-d]pyrimidin-4-amine]
200 to 1000 | < 200 | 200 to 1000 | CCN(C)C/C=C/C(=O)N1CCc2c(sc3ncnc(Nc4ccc5c(ccn5Cc5ccccn5)c4)c23)C1 [Example 127, 7-{(2E)-4-[ethyl(methyl)amino]but-2-enoyl}-N-[l-(pyridin-ylmethyl)1H-indol-5-yl]-5,6,7,8-tetrahydropyrido [4′,3′:4,5]thieno[2,3-d]pyrimidin-4-amine]
200 to 1000 | < 200 | 200 to 1000 | CN(C/C=C/C(=O)N1CCc2c(sc3ncnc(Nc4ccc5c(cnn5Cc5ccccn5)c4)c23)C1)C(C)(C)C [Example 128, 7-{(2E)-4-[tert-butyl(methyl)amino]but-2-enoyl}-N-[1-(pyridin-2-ylmethyl)-1H-indazol-5-yl]-5,6,7,8-tetrahydropyrido [4′,3′:4,5]thieno[2,3-d]pyrimidin-4-amine]
200 to 1000 | < 200 | < 200 | CN(C/C=C/C(=O)N1CCc2c(sc3ncnc(Nc4ccc5c(ccn5Cc5ccccn5)c4)c23)C1)C(C)(C)C [Example 129]
200 to 1000 | < 200 | 200 to 1000 | O=C(C#CCCN1CCCCC1)N1CCc2c(sc3ncnc(Nc4ccc(OCc5ccccn5)c(Cl)c4)c23)C1 [Example 132, N-[3-chloro-4-(pyridin-2-ylmethoxy)phenyl]-7-(5-piperidin-1-ylpent-2-ynoyl)-5,6,7,8-tetrahydropyrido[4′,3′:4,5]-thieno[2,3-d]pyrimidin-4-amine]
200 to 1000 | < 200 | 200 to 1000 | C#Cc1cccc(Nc2ncnc3sc4c(c23)CCN(C(=O)C#CCN(C)C)C4)c1 [Example 133, 7-[4-(dimethylamino)but-2-ynoyl]-N-(3-ethynylphenyl)-5,6,7,8-tetrahydropyrido [4′,3′:4,5]thieno[2,3-d]pyrimidin-4-amine]
200 to 1000 | < 200 | 200 to 1000 | CN(C)CC#CC(=O)N1CCc2c(sc3ncnc(Nc4ccc(F)c(Cl)c4)c23)C1 [Example 134, N-(3-chloro-4-fluorophenyl)-7-[4-(dimethylamino)but-2-ynoyl]-5,6,7,8-tetrahydropyrido [4′,3′:4,5]thieno[2,3-d]pyrimidin-4-amine]
200 to 1000 | < 200 | < 200 | CN(C)CC#CC(=O)N1CCc2c(sc3ncnc(Nc4ccc(OCc5ccccn5)c(Cl)c4)c23)C1 [Example 135, N-[3-chloro-4-(pyridin-2-ylmethoxy)phenyl]-7-[4-(dimethylamino)but-2-ynoyl]-5,6,7,8-tetrahydropyrido [4′,3′:4,5]thieno[2,3-d]pyrimidin-4-amine]
1000 to 10000 | < 200 | 1000 to 10000 | O=C(C#CCN1CCOCC1)N1CCc2c(sc3ncnc(Nc4ccc(OCc5ccccn5)c(Cl)c4)c23)C1 [Example 136, N-[3-chloro-4-(pyridin-2-ylmethoxy)phenyl]-7-(4-morpholin-4-ylbut-2-ynoyl)-5,6,7,8-tetrahydropyrido [4′,3′:4,5]thieno[2,3-d]pyrimidin-4-amine]
200 to 1000 | < 200 | 200 to 1000 | O=C(C#CCN1CCOCC1)N1CCc2c(sc3ncnc(Nc4ccc(OCc5cccc(F)c5)c(Cl)c4)c23)C1 [Example 139, N-{3-chloro-4-[(3-fluorobenzyl)oxy]phenyl}-7-(4-morpholin-4-ylbut-2-ynoyl)-5,6,7,8-tetrahydropyrido [4′,3′:4,5]thieno[2,3-d]pyrimidin-4-amine]
200 to 1000 | < 200 | 200 to 1000 | O=C(C#CCCN1CCCCC1)N1CCc2c(sc3ncnc(Nc4ccc(F)c(Cl)c4)c23)C1 [Example 140, N-(3-chloro-4-fluorophenyl)-7-(5-piperidin-1-ylpent-2-ynoyl)-5,6,7,8-tetrahydropyrido [4′,3′:4,5]thieno[2,3-d]pyrimidin-4-amine]
